{
  "source": "patent US20230280333A1",
  "about": "“FOREIGN SUBSTANCE INTRODUCTION CONSTRUCT AND USE THEREOF” (TOAGOSEI CO., LTD., priority 2022, published 2023)",
  "key": {"HeLa cells": {"system": "HeLa cells", "test": "Evaluation of the cell membrane permeability by flow cytometry", "format": "cell-based, human", "details": "for cell membrane permeability, conclusion in words / MFI compared between examples, in words: HeLa cells, 10 μM, 20 hours; for cell membrane permeability, conclusion in words: FAM-labelled constructs; for MFI: mean fluorescent intensity of HeLa cells, 10 μM in culture medium, 0.5% DMSO, 20 hours at 37° C., FL2 detector", "description": "The cell membrane permeability of peptides 1 to 4 was analyzed using HeLa cells (an established cell line derived from human cervical cancer cells) as the eukaryotic cells.\nHeLa cells were cultured on DMEM (Dulbecco's modified Eagle's medium (Cat. No. 043-30085, from FUJIFILM Wako Pure Chemical Corporation)) containing 10% FBS (fetal bovine serum), which is a general culture medium.\nThe HeLa cells attached to the culture plate were washed with PBS, a 0.25% trypsin/EDTA solution was then added, and incubation was carried out for 3 minutes at 37° C. After this incubation, the aforementioned DMEM containing 10% FBS was added and the trypsin was inactivated, and the cells were then sedimented by carrying out centrifugal separation for 5 minutes at 150×g. The supernatant produced by the centrifugal separation was removed, and the aforementioned DMEM containing 10% FBS was added to the sediment (cell pellet) to prepare a cell suspension containing approximately 2×10^5 cells/mL. The cells were seeded (approximately 2×10^5 cells/well) by the addition of 1 mL of this cell suspension to the wells of a commercial 6-well plate (Iwaki). In addition, the 2 mM sample solution 1 was diluted with the aforementioned DMEM containing 10% FBS to prepare a sample solution 1 in which the sample 1 concentration was 20 μM. 1 mL of this 20 sample solution 1 was added to a well (i.e., the concentration of sample 1 in the culture medium in the wells was brought to 10 μM and the DMSO concentration was brought to 0.5%). The cells were subsequently incubated for 20 hours at 37° C. under the condition of 5% CO2.\nAfter this 20-hour incubation, the culture supernatant was removed from a well and the cells in the well were washed twice with 1 mL PBS. 200 μL of a 0.25% trypsin/EDTA solution was then added to the well and incubation was carried out for 3 minutes at 37° C. After this incubation, the trypsin was inactivated by the addition of 400 μL of the aforementioned DMEM containing 10% FBS to the well, and the cells were subsequently recovered by transferring the cell suspension in a well to a tube. The well was then washed by the further addition of 600 μL PBS to the well. The cells that had remained in the well were recovered to the tube by transferring the PBS in the well to the tube. Centrifugal separation was run on this tube for 5 minutes using conditions of 4° C. and 210×g. After the centrifugal separation, the supernatant was removed, the sediment (cell pellet) was suspended (washed) with 1 mL of PBS, and centrifugal separation was carried out using the same conditions as before. After this procedure had been performed twice, the supernatant was removed to obtain cells (cell pellet) that had been cultured on a sample 1-containing culture medium.\nThe cell permeability of sample 1 was analyzed using the resulting cells (cell pellet) and a flow cytometer. An On-Chip Flow Cytometer (On-chip Biotechnologies Co., Ltd.) was used for the flow cytometer.\nFor this analysis, the cell pellet obtained as described above was suspended in 50 μL PBS. To this suspension was added 50 μL of Sample Buffer 2× for use with the indicated flow cytometer to prepare a cell suspension for submission to analysis.\nGating was performed using this flow cytometer based on forward scatter (FSC) and side scatter (SSC); the gating was set for the cell population that was the target of the analysis; and the fluorescent intensity was measured for the cell population within this gating. The analysis was performed so the cell count for this cell population reached at least 10,000 or more. The FL2 fluorescence detector (optimal detection wavelength around 543 nm) on the indicated flow cytometer, which could detect the fluorescence wavelength of FAM, was used to measure the fluorescent intensity. […]"}, "[1]": {"system": "cell membrane of eukaryotic cells", "test": "Cell membrane permeability stated by the inventors, no data or method shown", "format": "cell-based", "details": "detailed data not provided"}, "nucleolus": {"system": "nucleolus", "test": "Nucleolar transferability stated in the description, no method shown", "format": "cell-based"}},
  "note": "Where no end group is shown, it is not given here.",
  "data": [
    {"substance": "KKRTLRKKKRKKRWPC (Ac-KKRTLRKKKRKKRWPC) [Peptide 2, carrier peptide fragment; synthesized with N-terminal α-amino group acetylated]", "values": [
      {"measurement": "cell membrane permeability, conclusion in words", "setting": "HeLa cells; listed as SEQ ID NO: 2", "result": "better cell membrane permeability than peptide composed of the amino acid sequence given by SEQ ID NO: 5"}
    ]},
    {"substance": "Ac-KKRTLRKKKRKKRWPC-FAM (Ac-KKRTLRKKKRKKRWPC-{FAM}) [Example 2, foreign substance introduction construct provided with peptide 2, FAM bonded to the C-terminal side]", "values": [
      {"measurement": "MFI compared between examples, in words", "setting": "HeLa cells", "result": "significantly higher MFI than Example 4"},
      {"measurement": "MFI", "setting": "HeLa cells", "result": 121}
    ]},
    {"substance": "FAM-KKRTLRKSNRKKR-CONH2 [Example 3′]", "values": [
      {"measurement": "MFI", "setting": "HeLa cells", "result": 62}
    ]},
    {"substance": "Ac-KKRTLRKSNRKKR-FAM [Example 3]", "values": [
      {"measurement": "MFI", "setting": "HeLa cells", "result": 12.4}
    ]},
    {"substance": "KKRTLRKSNRKKR (Ac-KKRTLRKSNRKKR) [Peptide 3, variant of LIM kinase 2 NoLS; synthesized with N-terminal acetylation]", "values": [
      {"measurement": "cell membrane permeability, statement in words", "setting": "[1]", "result": "higher cell membrane permeability than peptide comprising the amino acid sequence given by SEQ ID NO: 3"}
    ]},
    {"substance": "KKRTLRKSNRKKRWPC (Ac-KKRTLRKSNRKKRWPC) [Peptide 1, carrier peptide fragment; synthesized with N-terminal α-amino group acetylated]", "values": [
      {"measurement": "cell membrane permeability, conclusion in words", "setting": "HeLa cells; listed as SEQ ID NO: 1", "result": "better cell membrane permeability than peptide composed of the amino acid sequence given by SEQ ID NO: 4"}
    ]},
    {"substance": "Ac-KKRTLRKKKRKKR-FAM [Example 4]", "values": [
      {"measurement": "MFI", "setting": "HeLa cells", "result": 24.3}
    ]},
    {"substance": "5(6)-carboxyfluorescein [Example 5, reference compound]", "values": [
      {"measurement": "MFI", "setting": "HeLa cells", "result": 10.3}
    ]},
    {"substance": "KKRTLRKKKRKKR (Ac-KKRTLRKKKRKKR) [Peptide 4, variant of LIM kinase 2 NoLS; synthesized with N-terminal acetylation]", "values": [
      {"measurement": "cell membrane permeability, statement in words", "setting": "[1]", "result": "higher cell membrane permeability than peptide comprising the amino acid sequence given by SEQ ID NO: 3"},
      {"measurement": "nucleolar transferability, in words", "setting": "nucleolus", "result": "excellent nucleolar transferability"}
    ]},
    {"substance": "Ac-KKRTLRKSNRKKRWPC-FAM (Ac-KKRTLRKSNRKKRWPC-{FAM}) [Example 1, foreign substance introduction construct provided with peptide 1, FAM bonded to the C-terminal side]", "values": [
      {"measurement": "MFI compared between examples, in words", "setting": "HeLa cells", "result": "highest among Example 1, Example 3, and Example 3′"},
      {"measurement": "MFI", "setting": "HeLa cells", "result": 87.5}
    ]}
  ]
}
